Experimental data: ChEMBL document CHEMBL1135703, “Synthesis and biological activity of a novel class of small molecular weight peptidomimetic competitive inhibitors of protein tyrosine phosphatase 1B” (2002)

Legend:
[1] = biological target: T1, Tyrosine-protein phosphatase non-receptor type 1 (Rattus norvegicus) (UniProt P20417); assay: Percent inhibition of Protein-tyrosine phosphatase 1 (PTP) assayed at 100 uM
T1 sequence (whole entry): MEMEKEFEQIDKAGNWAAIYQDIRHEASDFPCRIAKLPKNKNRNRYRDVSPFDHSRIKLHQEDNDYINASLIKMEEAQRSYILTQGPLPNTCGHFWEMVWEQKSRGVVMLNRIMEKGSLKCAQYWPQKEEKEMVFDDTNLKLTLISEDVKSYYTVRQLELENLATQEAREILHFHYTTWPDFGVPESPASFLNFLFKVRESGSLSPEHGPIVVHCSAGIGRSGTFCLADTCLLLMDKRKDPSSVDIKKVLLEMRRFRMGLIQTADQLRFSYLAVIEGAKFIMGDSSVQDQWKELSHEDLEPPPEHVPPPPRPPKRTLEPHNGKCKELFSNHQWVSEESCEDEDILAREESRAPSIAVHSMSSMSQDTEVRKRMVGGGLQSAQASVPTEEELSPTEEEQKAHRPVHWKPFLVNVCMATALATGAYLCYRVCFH

[2] = biological target: Receptor-type tyrosine-protein phosphatase F (Homo sapiens) (UniProt P10586); assay: Percent inhibition of Protein-tyrosine phosphatase Lar assayed at 100 uM
[3] = biological target: T2, Tyrosine-protein phosphatase non-receptor type 11 (Mus musculus) (UniProt P35235); assay: Percent inhibition of Tyrosine phosphatase SHP2 SH2 domain containing PTP involved in insulin uM; parameters: concentration or dose not given beside the values; conditions: concentration not given here
T2 sequence (whole entry): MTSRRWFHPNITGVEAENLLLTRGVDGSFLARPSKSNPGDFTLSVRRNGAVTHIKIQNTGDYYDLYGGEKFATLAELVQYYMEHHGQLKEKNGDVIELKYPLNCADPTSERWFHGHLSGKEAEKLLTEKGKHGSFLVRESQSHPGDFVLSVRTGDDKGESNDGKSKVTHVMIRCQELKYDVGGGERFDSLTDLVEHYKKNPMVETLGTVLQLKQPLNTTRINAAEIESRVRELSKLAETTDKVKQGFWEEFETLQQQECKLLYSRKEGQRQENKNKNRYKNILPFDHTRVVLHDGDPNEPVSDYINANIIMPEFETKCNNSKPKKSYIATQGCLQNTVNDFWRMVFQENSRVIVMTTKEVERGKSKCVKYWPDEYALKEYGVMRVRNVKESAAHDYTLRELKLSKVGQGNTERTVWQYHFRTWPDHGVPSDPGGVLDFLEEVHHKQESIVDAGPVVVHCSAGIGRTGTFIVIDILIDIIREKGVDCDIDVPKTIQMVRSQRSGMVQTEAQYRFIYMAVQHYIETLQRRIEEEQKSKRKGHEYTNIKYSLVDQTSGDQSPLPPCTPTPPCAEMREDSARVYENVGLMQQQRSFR

Chain of Receptor-type tyrosine-protein phosphatase F (Homo sapiens) (P10586 whole entry, the tested form may be a part): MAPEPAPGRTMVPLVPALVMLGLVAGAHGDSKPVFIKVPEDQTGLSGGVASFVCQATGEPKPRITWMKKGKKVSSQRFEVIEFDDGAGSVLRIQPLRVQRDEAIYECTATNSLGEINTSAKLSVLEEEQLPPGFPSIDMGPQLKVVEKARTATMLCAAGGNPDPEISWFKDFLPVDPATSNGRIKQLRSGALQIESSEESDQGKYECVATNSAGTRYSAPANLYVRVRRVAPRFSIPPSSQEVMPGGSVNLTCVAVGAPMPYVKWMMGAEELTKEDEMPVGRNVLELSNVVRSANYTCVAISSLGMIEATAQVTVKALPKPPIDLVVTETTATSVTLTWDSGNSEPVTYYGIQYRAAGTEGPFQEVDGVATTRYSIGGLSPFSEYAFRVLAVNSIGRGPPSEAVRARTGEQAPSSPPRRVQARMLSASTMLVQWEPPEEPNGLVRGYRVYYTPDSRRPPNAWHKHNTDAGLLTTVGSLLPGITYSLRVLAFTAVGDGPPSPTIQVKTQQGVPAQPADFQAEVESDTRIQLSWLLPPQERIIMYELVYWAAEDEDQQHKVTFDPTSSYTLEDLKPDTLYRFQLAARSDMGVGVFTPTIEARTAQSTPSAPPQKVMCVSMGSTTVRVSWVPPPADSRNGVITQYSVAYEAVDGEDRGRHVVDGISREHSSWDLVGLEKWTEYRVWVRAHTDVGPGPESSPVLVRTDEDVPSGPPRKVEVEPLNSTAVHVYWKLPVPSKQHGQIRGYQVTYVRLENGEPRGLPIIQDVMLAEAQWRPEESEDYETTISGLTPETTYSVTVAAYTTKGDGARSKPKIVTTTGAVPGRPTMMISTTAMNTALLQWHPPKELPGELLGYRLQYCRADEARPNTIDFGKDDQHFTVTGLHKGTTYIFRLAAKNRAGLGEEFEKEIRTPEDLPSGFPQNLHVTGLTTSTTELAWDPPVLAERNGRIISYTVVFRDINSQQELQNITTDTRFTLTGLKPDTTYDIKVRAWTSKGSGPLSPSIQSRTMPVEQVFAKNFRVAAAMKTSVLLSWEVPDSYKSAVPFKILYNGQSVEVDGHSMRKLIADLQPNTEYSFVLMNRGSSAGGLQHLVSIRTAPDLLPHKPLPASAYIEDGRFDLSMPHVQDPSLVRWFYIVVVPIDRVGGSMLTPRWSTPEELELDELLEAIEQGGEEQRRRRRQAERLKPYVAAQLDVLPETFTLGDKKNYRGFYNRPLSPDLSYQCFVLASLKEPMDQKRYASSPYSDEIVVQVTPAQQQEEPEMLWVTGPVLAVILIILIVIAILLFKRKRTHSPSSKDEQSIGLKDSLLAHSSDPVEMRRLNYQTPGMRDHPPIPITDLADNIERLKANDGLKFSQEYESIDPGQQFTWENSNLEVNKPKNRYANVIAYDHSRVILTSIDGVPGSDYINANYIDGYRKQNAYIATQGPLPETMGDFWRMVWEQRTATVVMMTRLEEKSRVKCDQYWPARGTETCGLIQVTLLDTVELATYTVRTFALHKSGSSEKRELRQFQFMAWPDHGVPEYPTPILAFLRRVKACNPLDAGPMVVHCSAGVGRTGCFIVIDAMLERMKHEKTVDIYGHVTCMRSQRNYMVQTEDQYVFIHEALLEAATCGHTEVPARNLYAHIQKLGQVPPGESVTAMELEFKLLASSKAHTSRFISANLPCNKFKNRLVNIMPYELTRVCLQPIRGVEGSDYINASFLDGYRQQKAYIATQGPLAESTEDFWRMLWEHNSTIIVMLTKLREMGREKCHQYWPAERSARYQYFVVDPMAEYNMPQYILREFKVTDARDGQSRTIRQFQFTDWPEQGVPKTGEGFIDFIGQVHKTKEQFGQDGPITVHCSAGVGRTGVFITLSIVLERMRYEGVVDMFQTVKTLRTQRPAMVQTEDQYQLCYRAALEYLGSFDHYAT

Row | inhibition [1] | inhibition [2] | inhibition [3] | Structure (SMILES)
1 | 53% | 5% | 8% | CCCCCNC(=O)C(Cc1ccc(OC(C(=O)O)C(=O)O)cc1)NC(=O)COCC(=O)O (configuration not stated)
2 | 39% | 1% | 4% | CCCCCNC(=O)[C@@H](Cc1ccc(OC(C(=O)O)C(=O)O)cc1)NC(=O)CCC(=O)O
3 | 43% |  |  | O=C(O)CCC(=O)NC(Cc1ccc(OC(C(=O)O)C(=O)O)cc1)C(=O)NCCc1ccc(O)cc1 (configuration not stated)
4 | 66% | 4% | 15% | O=C(O)CCC(=O)NC(Cc1ccc(OC(C(=O)O)C(=O)O)cc1)C(=O)NCc1ccc(C(F)(F)F)cc1 (configuration not stated)
5 | 57% | 6% | 10% | CCCCCNC(=O)C(Cc1ccc(OC(C(=O)O)C(=O)O)cc1)NC(=O)[C@H]1C[C@@H]1C(=O)O (some centres not stated)
6 | 57% | 0% | 10% | CC(C)CC(CO)NC(=O)C(Cc1ccc(OC(C(=O)O)C(=O)O)cc1)NC(=O)CCC(=O)O (configuration not stated)
7 | 90% | 6% | 50% | CCCCCNC(=O)C(Cc1ccc(OC(C(=O)O)C(=O)O)cc1)NC(=O)[C@H](CC(=O)O)NC(=O)OCc1ccccc1 (some centres not stated)
8 | 1% |  | 0% | CCCCCNC(=O)C(Cc1ccc(OC(C(=O)OCC)C(=O)OCC)cc1)NC(=O)CCC(=O)O (configuration not stated)
9 | 72% | 9% | 18% | CCCCCNC(=O)C(Cc1ccc(OC(C(=O)O)C(=O)O)cc1)NC(=O)CC1(CC(=O)O)CCCC1 (configuration not stated)
10 | 57% | 4% | 34% | O=C(O)CCC(=O)NC(Cc1ccc(OC(C(=O)O)C(=O)O)cc1)C(=O)NCCOc1ccccc1 (configuration not stated)
11 | 72% | 6% | 12% | O=C(O)CCC(=O)NC(Cc1ccc(OC(C(=O)O)C(=O)O)cc1)C(=O)NCCCc1ccccc1 (configuration not stated)
12 | 50% |  | 5% | CCCCCNC(=O)C(Cc1ccc(O/C(=C/C(=O)O)C(=O)O)cc1)NC(=O)CCC(=O)O (configuration not stated)
13 | 51% |  |  | CCCCCNC(=O)C(Cc1ccc(OC(C(=O)O)C(=O)O)cc1)NC(=O)CCC(N)=O (configuration not stated)
14 | 78% | 4% | 9% | CCCCCNC(=O)C(Cc1ccc(OC(C(=O)O)C(=O)O)c(F)c1)NC(=O)CCC(=O)O (configuration not stated)
15 | 46% | 3% | 11% | CCOC(CNC(=O)C(Cc1ccc(OC(C(=O)O)C(=O)O)cc1)NC(=O)CCC(=O)O)OCC (configuration not stated)
16 | 18% | 0% | 10% | CCCCCNC(=O)C(CCc1ccc(OC(C(=O)O)C(=O)O)cc1)NC(=O)CCC(=O)O (configuration not stated)
17 | 35% | 0% | 2% | O=C(O)CCC(=O)NC(Cc1ccc(OC(C(=O)O)C(=O)O)cc1)C(=O)NCCCN1CCOCC1 (configuration not stated)
18 | 2% |  | 0% | CCCCCNC(=O)C(Cc1ccc(OC(=O)CC(=O)O)cc1)NC(=O)CCC(=O)O (configuration not stated)
19 | 37% | 8% | 5% | CCCCCNC(=O)C(Cc1ccc(OC(C(=O)O)C(=O)O)cc1)NC(=O)C1C2CCC(C2)[C@@H]1C(=O)O (some centres not stated)
20 | 85% | 12% | 23% | CCCCCNC(=O)C(Cc1ccc(OC(C(=O)O)C(=O)O)c(F)c1F)NC(=O)CCC(=O)O (configuration not stated)
21 | 62% | 8% | 13% | CCCCCNC(=O)C(Cc1ccc(OC(C(=O)O)C(=O)O)cc1)NC(=O)[C@H]1CCCC[C@H]1C(=O)O (some centres not stated)
22 | 23% |  | 1% | O=C(O)CCC(=O)NC(Cc1ccc(OC(C(=O)O)C(=O)O)cc1)C(=O)NCCN1CCCCC1 (configuration not stated)
23 | 26% | 3% | 1% | O=C(O)CCC(=O)NC(Cc1ccc(OC(C(=O)O)C(=O)O)cc1)C(=O)NCCCn1ccnc1 (configuration not stated)
24 | 91% | 24% | 11% | CCCCCNC(=O)C(Cc1ccc(OC(C(=O)O)C(=O)O)cc1)NC(=O)[C@H](Cc1ccc(C(=O)c2ccccc2)cc1)NC(=O)OC(C)(C)C (some centres not stated)
25 | 93% | 4% | 48% | CCCCC(N)C(=O)NC(=O)C(Cc1ccc(OC(C(=O)O)C(=O)O)cc1)NC(=O)CCC(=O)O (configuration not stated)

Row | inhibition [1] | inhibition [2] | inhibition [3] | Structure (SMILES)
26 | 48% | 5% | 7% | CC(C)CCNC(=O)C(Cc1ccc(OC(C(=O)O)C(=O)O)cc1)NC(=O)CCC(=O)O (configuration not stated)
27 | 91% | 10% | 37% | CCCCCNC(=O)C(Cc1ccc(OC(C(=O)O)C(=O)O)cc1)NC(=O)[C@H](CC(=O)O)NC(=O)CCCCC (some centres not stated)
28 | 0% |  |  | CCCCCNC(=O)C(Cc1ccc(OS(=O)(=O)C(F)(F)F)cc1)NC(=O)CCC(=O)O (configuration not stated)
29 | 63% | 6% | 12% | O=C(O)CCC(=O)NC(Cc1ccc(OC(C(=O)O)C(=O)O)cc1)C(=O)NCc1ccc2c(c1)OCO2 (configuration not stated)
30 | 98% | 33% | 28% | CCCCCNC(=O)C(Cc1ccc(OC(C(=O)O)C(=O)O)cc1)NC(=O)[C@H](COc1ccc(Cc2cc(Cl)ccc2Cl)cc1)NC(=O)CCC(=O)O (some centres not stated)
31 | 73% | 5% | 12% | O=C(O)CCC(=O)NC(Cc1ccc(OC(C(=O)O)C(=O)O)cc1)C(=O)NCC1CCCCC1 (configuration not stated)
32 | 83% | 11% | 14% | CCCCCNC(=O)C(Cc1ccc(OC(C(=O)O)C(=O)O)cc1)NC(=O)[C@H](CCC(=O)O)NC(=O)OC(C)(C)C (some centres not stated)
33 | 67% | 7% | 10% | CCCCCNC(=O)C(Cc1ccc(OC(C(=O)O)C(=O)O)cc1)NC(=O)CCCC(=O)O (configuration not stated)
34 | 85% | 27% | 45% | CCCCCNC(=O)C(Cc1ccc(OC(C(=O)O)C(=O)O)cc1)NC(=O)[C@H](COc1ccc(Cc2cc(Cl)ccc2Cl)cc1)NC(=O)OC(C)(C)C (some centres not stated)
35 | 90% | 30% | 9% | CCCCCNC(=O)C(Cc1ccc(OC(C(=O)O)C(=O)O)cc1)NC(=O)[C@H](Cc1ccc(OC)cc1)NC(=O)OC(C)(C)C (some centres not stated)
36 | 34% |  | 4% | CCCCCNC(=O)C(Cc1ccc(OC(CC(=O)O)C(=O)O)cc1)NC(=O)CCC(=O)O (configuration not stated)
37 | 33% | 2% | 52% | CCCCCNC(=O)C(Cc1ccc(C=C(C(=O)O)C(=O)O)cc1)NC(=O)CCC(=O)O (configuration not stated)
38 | 90% | 10% | 12% | CCCCCNC(=O)C(Cc1ccc(OC(C(=O)O)C(=O)O)cc1)NC(=O)[C@H](CC(=O)O)NC(=O)OC(C)(C)C (some centres not stated)
39 | 74% | 7% | 13% | CCCCCNC(=O)C(Cc1ccc(OC(C(=O)O)C(=O)O)cc1)NC(=O)CC(=O)O (configuration not stated)
40 | 0% |  |  | CCCCCNC(=O)C(Cc1ccc(OS(C)(=O)=O)cc1)NC(=O)CCC(=O)O (configuration not stated)
41 | 72% | 7% | 10% | CCCCCNC(=O)C(Cc1ccc(OC(C(=O)O)C(=O)O)cc1)NC(=O)[C@H]1CCCC[C@@H]1C(=O)O (some centres not stated)
42 | 11% | 0% | 1% | CCCCCNC(=O)C(Cc1ccc(OCC(=O)O)c(C(N)=O)c1)NC(=O)CCC(=O)O (configuration not stated)
43 | 96% | 10% | 28% | CCCCCNC(=O)C(Cc1ccc(OC(C(=O)O)C(=O)O)cc1)NC(=O)[C@H](CCC(=O)O)NC(=O)CCC(=O)O (some centres not stated)
44 | 74% | 5% | 8% | CCCCCCNC(=O)C(Cc1ccc(OC(C(=O)O)C(=O)O)cc1)NC(=O)CCC(=O)O (configuration not stated)
45 | 54% | 6% | 11% | CCCCCNC(=O)[C@H](Cc1ccc(OC(C(=O)O)C(=O)O)cc1)NC(=O)[C@@H](Cc1ccc(C(=O)c2ccccc2)cc1)NC(=O)CCC(=O)O
46 | 37% | 5% | 1% | CCCCNC(=O)C(Cc1ccc(OC(C(=O)O)C(=O)O)cc1)NC(=O)CCC(=O)O (configuration not stated)
47 | 39% |  |  | CCCCCNC(=O)C(Cc1ccc(OC(C(=O)O)C(=O)O)cc1)NC(=O)CCC(=O)OCc1ccccc1 (configuration not stated)
48 | 14% | 0% | 0% | CCCCCNC(=O)C(Cc1ccc(OCC(=O)O)cc1)NC(=O)CCC(=O)O (configuration not stated)
49 | 45% | 11% | 9% | O=C(O)CCC(=O)NC(Cc1ccc(OC(C(=O)O)C(=O)O)cc1)C(=O)NCCC(c1ccccc1)c1ccccc1 (configuration not stated)
